The target of one experiment is gp120 (Human immunodeficiency virus type 1 group M subtype B, UniProt P35961). Put plainly: Isothermal titration calorimetry binding to gp120.
The next experiment relates to wild-type HIV-1YU2 virus. The class given is cell-based. Conditions: CD4-expressing Cf2Th-CCR5 target cells.
The subject of a further experiment is recombinant HIV-1YU2. In kind it is cell-based. To be noted: CD4-deficient Cf2Th-CCR5 cells.
Experiment [1] deals with D368A mutant HIV-1YU2 envelope glycoproteins. In kind it is cell-based. To be noted: vestibule of the Phe 43 cavity.
Experiment [2] deals with S375A mutant HIV-1YU2 envelope glycoproteins. The class given is cell-based. To be noted: base of the Phe 43 cavity.

Each structure is given as a SMILES string. Read-outs that look alike come from different tables or passages of the source.

The text below walks through data of paper PMC3049263 (Bioorganic & medicinal chemistry, 2010).

With `CC(C)N1CCC(NC(=O)C(=O)Nc2ccc(Cl)c(F)c2)CC1` [Compound 11], the “gp120 binding affinity (in words)” value on gp120 (ITC) is listed as “retention of binding affinity”.

With `CC1(C)CC(NC(=O)C(=O)Nc2ccc(Cl)c(F)c2)CC(C)(C)C1` [Compound 17], the “Inhibition of CD4-gp120 binding / viral infection (in words)” value in the experiment on wild-type HIV-1YU2 virus is “failed to exhibit inhibition”. In the case of `CC1(C)C2CCC1(C)C(NC(=O)C(=O)Nc1ccc(Cl)c(F)c1)C2` (stereo not shown) [Compound 18], the “Inhibition of CD4-gp120 binding / viral infection (in words)” value with wild-type HIV-1YU2 virus is given as “failed to exhibit inhibition”. For the molecule `CC1(C)CC(NC(=O)C(=O)Nc2ccc(Cl)c(F)c2)CC(C)(C)O1` [Compound 19], the “gp120 binding affinity (in words)” value on gp120 (ITC) is listed as “reduced binding”.

With `CC1(C)CC(NC(=O)C(=O)Nc2ccc(Cl)c(F)c2)CC(C)(C)[N+]1(C)[O-]` (stereo not shown) [Compound 20], the “gp120 binding affinity (in words)” value at gp120 was “reduced binding”. Turning to `CC(C)N1CCCCC1CCNC(=O)C(=O)Nc1ccc(Cl)c(F)c1` (stereo not shown) [Compound 25], the “Inhibition of CD4-gp120 binding / viral infection (in words)” value with wild-type HIV-1YU2 virus was “improved IC50”. As to `O=C(NCC1NCCc2ccccc21)C(=O)Nc1ccc(Cl)c(F)c1` (stereo not shown) [Compound 39], the “Enhancement of viral infectivity (in words)” value (shortened to “Enhancement”) with recombinant HIV-1YU2 is “decreased enhancement of viral infectivity”.

Turning to `CCN1CCCC1CNC(=O)C(=O)Nc1ccc(Cl)cc1` (stereo not shown) [Compound 42], the “Inhibition of CD4-gp120 binding / viral infection (in words)” value in the experiment with wild-type HIV-1YU2 virus is listed as “inhibited CD4-gp120 binding”. For `CCN1CCCC1CNC(=O)C(=O)Nc1ccc(Cl)c(F)c1` (stereo not shown) [Compound 43], the “Enhancement” value in the experiment with recombinant HIV-1YU2 is given as “without the accompanying enhancement of viral infectivity”. Moreover, on gp120 (ITC), the “gp120 binding affinity (in words)” value was “binding affinity comparable to 41”. As for `O=C(Nc1ccc(Cl)c(F)c1)C(=O)NC1CCNC2(CCC2)C1` (stereo not shown) [Compound 49], in the experiment on wild-type HIV-1YU2 virus, the “Inhibition of CD4-gp120 binding / viral infection (in words)” value is listed as “maintained inhibition”. The “Enhancement” value with recombinant HIV-1YU2 is recorded as “activation of viral infectivity similar to 1”. For the same molecule, the “Effect of D368A mutation on analogue binding (in words)” value in experiment [1] is reported as “negative effect”. Besides, in experiment [2], the “Effect of S375A mutation on inhibition of CD4-gp120 binding (in words)” value is “increases the ability of these analogues to inhibit CD4-gp120 binding”. Besides, the “gp120 binding affinity (in words)” value at gp120 (ITC) is given as “sub-micromolar binding affinity”. For `C[C@@H]1CCC[C@H](C)N1CCNC(=O)C(=O)Nc1ccc(Cl)c(F)c1` [Compound 50], the “Enhancement” value in the experiment with recombinant HIV-1YU2 is given as “ineffective at enhancing viral infectivity”. Also, the “Effect of D368A mutation on analogue binding (in words)” value in experiment [1] was “negative effect”. The “Effect of S375A mutation on inhibition of CD4-gp120 binding (in words)” value in experiment [2] is listed as “increases the ability of these analogues to inhibit CD4-gp120 binding”. For `O=C(NCC1CCCN(CCO)C1)C(=O)Nc1ccc(Cl)c(F)c1` (stereo not shown) [Compound 51], the “Enhancement” value in the experiment on recombinant HIV-1YU2 is “ineffective at enhancing viral infectivity”.
